System: fast axonal transport (FAT)
Assay: not given
Conditions: Kanaan et al. 2011; squid axons; cited from earlier work
For `Cn1cc(C2=C(c3coc4ccccc34)C(=O)NC2=O)c2cc(Br)ccc21` [ING-135], the “effect on inhibition of axonal transport by PAD peptide” value is listed as “blocked”.

System: h-tau42-dependent transmitter block
Assay: Oral administration of agents to squid, then presynaptic h-tau42 injection and recording of synaptic transmission
Type: in vivo, squid (Loligo paelli)
Conditions: systemic administration of agent
Method: Squid received an oral dose of each agent effective for such inhibiting phosphorylation of the tau protein. At 24 hours after the first dose a second dose was given, and the electrophysiological experiments were performed 1 hour after the second feeding. It was determine that after 24 hours of the double administration, an effective concentration of each agent effective for such inhibiting phosphorylation of the tau protein was measured in the CNS of the gastrically intubated squid (n=10 squid). Synapses from the treated squid were microinjected at the presynaptic axon with h-tau42 (an approximate 80 nM final concentration h-tau42 (n=19), considering a 100× dilution factor. Pre- and post-synaptic potentials were recorded for 90 min.
The squid (Loligo paelli) stellate ganglia isolation from the mantle and the electrophysiological techniques used have been described previously (Llinás, et al., Proc. Natl. Acad. Sci. U.S.A. 1985; 82: 3035-3039). Two glass micropipette electrodes impaled the largest (most distal) presynaptic terminal digit at the synaptic junction site while the post-synaptic axon was impaled by one microelectrode at the junctional site. One of the pre-electrodes was used for pressure microinjection of h-tau42 and also supported voltage clamp current feedback, while the second monitored membrane potential. The total volume injected fluctuated between 0.1 and 1 pl. (Llinás, et al., Proc. Natl. Acad. Sci. U.S.A. 1985; 82: 3035-3039). The exact location of injection and the diffusion and steady-state distribution of the protein/fluorescent dye mix (0.001% dextran fluorescein) were monitored using a fluorescence microscope attached to a Hamamatsu camera system (Middlesex, N.J.). In all experiments a good correlation was observed between the localization of the fluorescence and the electrophysiological findings.
Following presynaptic and post-synaptic axon impalements and the determination of normal synaptic transmission (Llinás, et al., Proc. Natl. Acad. Sci. U.S.A. 1985; 82: 3035-3039; Llinás, et al. Proc. Natl. Acad. Sci. U.S.A. 1994; 91: 12990-12993; Lin, et al., Proc. Natl. Acad. Sci. U.S.A. 1990; 87: 8257-8261), the effect of human tau on synaptic release was evaluated by presynaptic microinjections administered under direct visualization using a fluorescent dye/protein mix, reaching a final concentration after diffusion of approximately 80 nM. (See, Materials and Methods) Presynaptic and post-synaptic potentials were recorded simultaneously under current-clamp configuration. Presynaptic spikes were activated every 5 minutes (low-frequency protocol). With this paradigm, it was determined that 5-10 minutes after an injection of h-tau42, a reduction of transmitter release could be observed. With further time, a total block of transmission resulted, within 30-40 minutes depending on the length of the release zone in the preterminal axon (see, e.g. FIG. 2). […] By contrast, following administration of each agent effective for such inhibiting phosphorylation of the tau protein to the squid (see bellow) h-tau42-dependent transmitter block was prevented (see, generally, Figures).
In the case of `Cn1cnc(N)c2ncnc1-2` [3-methyladenine], the “h-tau42 induced functional and biochemical abnormalities in the presynaptic axon” value was “prevented or ameliorated”. For `O=C1CN(/N=C/c2ccc(-c3ccc([N+](=O)[O-])cc3)o2)C(O)=N1` [Dantrolene], the “h-tau42 induced functional and biochemical abnormalities in the presynaptic axon” value was “prevented or ameliorated”. For `Cn1cc(C2=C(c3coc4ccccc34)C(=O)NC2=O)c2cc(Br)ccc21` [ING-135], the “h-tau42 induced functional and biochemical abnormalities in the presynaptic axon” value was “prevented or ameliorated”. In the case of `[Cl-].[Li+]` [LiCl], the “h-tau42 induced functional and biochemical abnormalities in the presynaptic axon” value was “prevented or ameliorated”. In the case of `C[S+]([O-])c1ccc(-c2nc(-c3ccncc3)c(-c3ccc(F)cc3)[nH]2)cc1` (centres unmarked) [SB203580], the “h-tau42 induced functional and biochemical abnormalities in the presynaptic axon” value was “prevented or ameliorated”. With `Cn1cc(C2=C(c3ccc(Cl)cc3Cl)C(=O)NC2=O)c2ccccc21` [SB216763] the “h-tau42 induced functional and biochemical abnormalities in the presynaptic axon” value was “prevented or ameliorated”. In the case of Xitospongin C, the “h-tau42 induced functional and biochemical abnormalities in the presynaptic axon” value was “prevented or ameliorated”.

From US20140220036A1, “METHODS FOR TREATING NEURODEGENERATIVE DISEASES AND FOR IDENTIFYING AGENTS USEFUL FOR TREATING NEURODEGENERATIVE DISEASES” (priority 2013, published 2014)
